Assay results published in patent US5792466A, “Mimetic insect kinin analogs for insect control” (The United States of America, as represented by the …, priority 1996, dated 1998).
Entries after “also recorded” stand apart in the source; their conditions may differ. Where two headings read alike, the source gives them in different places. Ends that are not written are not given here. Peptide text beside a SMILES is read from it. QP = not defined here

Columns and labels:
[1] = system: angiotensin converting enzyme (ACE) from the housefly Musca domestica; settings: cited from earlier work
[2] = system: isolated Leucophaea maderae cockroach hindgut; settings: cited from earlier work; for Cockroach (Leucophaea maderae) hindgut contraction threshold (pM) ± (S.D.): naturally occurring achetakinins, Holman et al., 1990, reference (12); for potency in hindgut myotropic assay relative to parent or natural insect kinins: literature (Holman et al., 1987; Nachman et al., 1994)
[3] = system: isolated Malpighian tubules of the cricket Acheta domesticus; settings: cited from earlier work; for EC50 / Cricket Malpighian tubule fluid secretion Maximum response (%): naturally occurring achetakinins; for EC50: read-out: Cricket (Acheta domesticus) Malpighian tubule fluid secretion EC50; for Cricket Malpighian tubule fluid secretion Maximum response (%): literature reference (6)
[4] = system: isolated Leucophaea maderae cockroach hindgut; experiment: Cockroach hindgut myotropic bioassay; type: cell-based; settings: for potency in the cockroach hindgut myotropic assay relative to the most potent of the achetakinins (AK-IV): comparison of threshold concentrations; for Cockroach (Leucophaea maderae) hindgut contraction threshold (pM) ± (S.D.): minimum concentration evoking observable change in contractions, Aib analogs; for threshold activities on the isolated cockroach hindgut bioassay: values in M
Experimental: Leucophaea maderae cockroaches were taken from stock colonies maintained at 27° C. and fed dry dog food ad lib. Cockroach hindguts, free of central nervous system (CNS) tissue, were dissected, immersed in saline, and prepared for recording of myogenic activity as previously described [Holman et al., 1991, Insect Biochem., 21(1):107-112]. Threshold concentrations were determined for each analogue by adding a known quantity of peptide (dissolved in 0.5 ml bioassay saline) to the bioassay chamber containing the hindgut and observing the response on a Gould 2200S oscillograph recorder. The quantity of the peptide analogues was calculated from the values obtained for Phe in the amino acid analysis. The threshold concentration was defined as the minimum concentration of peptide in the chamber required to evoke an observable change in the frequency (50%) or amplitude of contractions (5%) within 1 min and sustained for 3 min. Threshold concentrations were obtained from five cockroach hindguts on 5 consecutive days for each peptide. Quantitative data for dose-response plots were obtained as previously described (Holman et al., 1991, ibid).

[5] = system: isolated Malpighian tubules of the cricket Acheta domesticus; experiment: Cricket Malpighian tubule secretion bioassay; type: cell-based; settings: for Cricket Malpighian tubule fluid secretion Maximum response (%): percentage of the response to a supermaximal dose (10 nM) of achetakinin-I, Aib analogs
Description: Crickets were reared as described (Clifford et al., 1977, Ann. Entomol. Soc. Am., 70:69-74) and fed a diet of turkey starter crumbs. Water was provided ad lib. Malpighian tubules were removed from 6-12-day-old adult virgin females. Single tubules were isolated in vitro as described (Coast, G. M., 1988, Physiol. Entomol., 13:381-391). After a 40-min equilibration period, the bathing fluid was changed and the rate of secretion, in picoliters per millimeter length of tubule per minute (pl/mm/min), was determined over 40 min (control rate). Thereafter, the bathing fluid was exchanged for one containing the assay material and the rate of secretion was determined over an additional 40-min period (experimental rate). Diuretic activity was calculated as the difference between control and experimental rates, and results are expressed as a percentage of the response obtained with a supermaximal dose (10 nM) of achetakinin-I assayed alongside the test analogues. All experiments were performed at room temperature (21°-24° C.) (Coast et al., 1990, ibid).

[6] = system: angiotensin converting enzyme (ACE) from the housefly Musca domestica; experiment: ACE enzyme hydrolysis trials; type: in vitro ADME; settings: pH 8.3, 37° C., over 120 minutes
Experimental: Musca ACE (Mr, 67,000) was purified from a soluble extract of adults as described elsewhere (Cornell et al., J. Biol. Chem., in press; Lamango and Isaac, J. Biol. Chem., in press) and yielded enzyme which appeared as a single band by SDS-PAGE. Unless otherwise stated, peptides (12-750 μM, final concentration) were incubated with Musca ACE in 100 mM Tris/HCl, pH 8.3 in the presence of 10 μM ZnCl2 and 0.3M NaCl at 37° C. Reactions (15 μl) were terminated either by heating to 100° C. for 5 min or by the addition of 5 μl of 8% (v/v) TFA, followed by centrifugation (13000 g, Microcentaur) for 2 min and diluted to 100 μl with 0.1% (v/v) TFA before HPLC analysis.
HPLC analysis was performed using a Pharmacia SuperPac Pep-S column (250 mm×4 mm, internal diameter) packed with 5 μm ODS particles. The solvent system comprised elution with 5% acetonitrile in 0.1% (v/v) trifluoroacetic acid for 3 min, followed by a linear increase of the acetonitrile component from 3 to 41% in 11 min (total run time of 14 min).

[7] = Lamango et al., Peptides, submitted

SKYVSQK-Phe--Phe--Ser--Trp--Gly--NH2 [Cus-DP-III]
hydrolysis by ACE [1]: hydrolyze

ALPFSSWG-NH2 [AK-III, ALP--Phe--Ser--Ser--Trp--Gly--NH2]
Cockroach (Leucophaea maderae) hindgut contraction threshold (pM) ± (S.D.) [2]: 270 pM
EC50 ([3]; Coast et al., 1990): 0.324 nM
Cricket Malpighian tubule fluid secretion Maximum response (%) [3]: 108%

CC(C)(NC(=O)[C@H](Cc1ccccc1)NC(=O)[C@H](Cc1ccccc1)NC(=O)[C@H](CCCCN)NC(=O)[C@@H]1CCC(=O)N1)C(=O)N[C@@H](Cc1c[nH]c2ccccc12)C(=O)NCC(N)=O [pGlu--Lys--Phe--Phe--Aib--Trp--Gly--NH2] (HELM PEPTIDE1{[Glp].K.F.F.[Aib].W.G.[am]}$$$$V2.0)
potency in the cockroach hindgut myotropic assay relative to the most potent of the achetakinins (AK-IV) [4]: an order of magnitude more potent
Cockroach (Leucophaea maderae) hindgut contraction threshold (pM) ± (S.D.) [4]: 3.5 pM
threshold activities on the isolated cockroach hindgut bioassay [4]: 3.5 pM
Cricket Malpighian tubule fluid secretion Maximum response (%) [5]: 101%

DPGFSSWG-NH2 [LK-II, DPG--Phe--Ser--Ser--Trp--Gly--NH2]
hydrolysis by ACE [1, 7]: hydrolyze

KFFPWG-NH2 [Lys--Phe--Phe--Pro--Trp--Gly--NH2]
potency in hindgut myotropic assay relative to parent or natural insect kinins [2]: more active than the pentapeptide core and/or the naturally occurring insect kinins

AYFSPWG-NH2 [AK-II, AY--Phe--Ser--Pro--Trp--Gly--NH2]
Cockroach (Leucophaea maderae) hindgut contraction threshold (pM) ± (S.D.) [2]: 48 pM
EC50 ([3]; Coast et al., 1990): 0.022 nM
Cricket Malpighian tubule fluid secretion Maximum response (%) [3]: 91%

SGADFYPWG-NH2 [AK-I, SGAD--Phe--Tyr--Pro--Trp--Gly--NH2]
Cockroach (Leucophaea maderae) hindgut contraction threshold (pM) ± (S.D.) [2]: 82 pM
EC50 ([3]; Coast et al., 1990): 0.078 nM
Cricket Malpighian tubule fluid secretion Maximum response (%) [3]: 86%

NFKFNPWG-NH2 [AK-IV, NFK--Phe--Asn--Pro--Trp--Gly--NH2]
Cockroach (Leucophaea maderae) hindgut contraction threshold (pM) ± (S.D.) [2]: 180 pM
EC50 ([3]; Coast et al., 1990): 0.024 nM
Cricket Malpighian tubule fluid secretion Maximum response (%) [3]: 96%

CC(C)(NC(=O)[C@H](Cc1ccccc1)NC(=O)[C@H](Cc1ccccc1)NC(=O)[C@H](CCCCNC(=O)[C@@H]1CCC(=O)N1)NC(=O)[C@@H]1CCC(=O)N1)C(=O)N[C@@H](Cc1c[nH]c2ccccc12)C(=O)NCC(N)=O [pGlu--Lys(pGlu)--Phe--Phe--Aib--Trp--Gly--NH2] (HELM PEPTIDE1{[Glp].K.F.F.[Aib].W.G.[am]}|PEPTIDE2{[Glp]}$PEPTIDE1,PEPTIDE2,2:R3-1:R2$$$V2.0)
potency in the cockroach hindgut myotropic assay relative to the most potent of the achetakinins (AK-IV) [4]: three orders of magnitude less potent
Cockroach (Leucophaea maderae) hindgut contraction threshold (pM) ± (S.D.) [4]: 28,000 pM
threshold activities on the isolated cockroach hindgut bioassay [4]: 28000 pM
Cricket Malpighian tubule fluid secretion Maximum response (%) [5]: 103%

NNANVFYPWG-NH2 [Cus-DP-II, NNANV-Phe--Tyr--Pro--Trp--Gly--NH2]
hydrolysis by ACE [1, 7]: hydrolyze

AFHSWG-NH2 [AK-V, A--Phe--His--Ser--Trp--Gly--NH2]
Cockroach (Leucophaea maderae) hindgut contraction threshold (pM) ± (S.D.) [2]: 43 pM
EC50 ([3]; Coast et al., 1990): 0.018 nM
Cricket Malpighian tubule fluid secretion Maximum response (%) [3]: 88%

CC(C)(NC(=O)[C@H](Cc1ccccc1)NC(=O)[C@@H](N)Cc1ccccc1)C(=O)N[C@@H](Cc1c[nH]c2ccccc12)C(=O)NCC(N)=O [Phe--Phe--Aib--Trp--Gly--NH2] (HELM PEPTIDE1{F.F.[Aib].W.G.[am]}$$$$V2.0)
hydrolysis by angiotensin converting enzyme (ACE) [6]: complete resistance to ACE; also recorded: complete resistance to hydrolysis
potency in the cockroach hindgut myotropic assay relative to the most potent of the achetakinins (AK-IV) [4]: roughly half as potent
potency in the cockroach hindgut myotropic assay relative to the most potent of the achetakinins (AK-IV) ([4]; listed as first analog): one half as potent
Cockroach (Leucophaea maderae) hindgut contraction threshold (pM) ± (S.D.) [4]: 100 pM
threshold activities on the isolated cockroach hindgut bioassay [4]: 100 pM
potency in the Malpighian tubule assay relative to the most potent naturally occurring achetakinin (AK-IV) / endogenous insect kinins ([5]; comparison of EC50 values): greater potency than the endogenous insect kinins
Cricket Malpighian tubule fluid secretion Maximum response (%) [5]: 99%

QP--Phe--His--Ser--Trp--Gly--NH2 ({QP}-FHSWG-NH2; reading uncertain; also: printed as QP--Phe--His--Ser--Trp--Gly--NH2) [Cus-DP-I]
hydrolysis by ACE [1, 7]: hydrolyze

FYPWG-NH2 [Phe--Tyr--Pro--Trp--Gly--NH2]
potency in hindgut myotropic assay relative to parent or natural insect kinins [2]: equipotent with the parent nonapeptide
potency in cricket Malpighian tubule secretion assay relative to parent nonapeptide ([3]; Coast et al., 1990): equipotent with the parent nonapeptide
